Assay type in all cases: cell-based
Assay [1] deals with T1, human TLR7 (Homo sapiens, UniProt Q9NYK1).
T1 construct: host or cells: HEK-Blue cells (HEK293-derived reporter line)
T1 sequence (Q9NYK1 27-1049): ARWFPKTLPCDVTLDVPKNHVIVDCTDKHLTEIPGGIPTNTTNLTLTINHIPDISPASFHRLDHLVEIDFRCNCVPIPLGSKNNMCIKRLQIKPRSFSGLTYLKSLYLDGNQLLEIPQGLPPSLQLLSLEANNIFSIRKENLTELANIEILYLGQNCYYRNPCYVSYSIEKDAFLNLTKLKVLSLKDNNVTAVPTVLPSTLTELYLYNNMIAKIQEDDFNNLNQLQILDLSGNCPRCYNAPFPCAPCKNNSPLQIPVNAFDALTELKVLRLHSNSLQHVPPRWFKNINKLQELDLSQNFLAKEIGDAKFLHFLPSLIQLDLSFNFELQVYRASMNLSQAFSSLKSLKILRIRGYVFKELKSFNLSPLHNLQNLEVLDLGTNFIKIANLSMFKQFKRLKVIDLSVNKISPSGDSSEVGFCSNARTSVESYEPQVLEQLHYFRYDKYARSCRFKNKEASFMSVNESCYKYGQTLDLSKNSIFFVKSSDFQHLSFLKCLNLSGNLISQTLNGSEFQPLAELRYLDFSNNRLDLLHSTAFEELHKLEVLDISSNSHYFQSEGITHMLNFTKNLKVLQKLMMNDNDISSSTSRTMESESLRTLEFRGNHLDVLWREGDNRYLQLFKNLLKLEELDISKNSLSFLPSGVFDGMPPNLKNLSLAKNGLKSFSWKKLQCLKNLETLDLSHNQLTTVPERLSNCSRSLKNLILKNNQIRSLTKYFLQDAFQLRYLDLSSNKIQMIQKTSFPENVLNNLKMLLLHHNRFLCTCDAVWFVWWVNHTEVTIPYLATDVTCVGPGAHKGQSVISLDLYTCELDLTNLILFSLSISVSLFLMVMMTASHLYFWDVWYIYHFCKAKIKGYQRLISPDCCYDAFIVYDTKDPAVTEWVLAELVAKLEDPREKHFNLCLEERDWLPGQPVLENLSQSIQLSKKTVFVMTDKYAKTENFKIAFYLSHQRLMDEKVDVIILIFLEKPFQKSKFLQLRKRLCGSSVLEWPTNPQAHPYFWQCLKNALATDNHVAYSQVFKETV
Nature of the assay: TLR7 inhibition reporter assay (HEK-Blue cells, SEAP reporter, gardiquimod stimulation). To be noted: HEK-Blue cells overexpressing human TLR7, SEAP reporter, gardiquimod 7.5 μM. The gist of the method: (§1)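 Agonists (final): TLR7 gardiquimod 7.5 μM; TLR8 R848 15.9 μM; TLR9 ODN2006 5 nM. HEK-Blue reporter cells, 30 min RT compound pre-incubation, 0.05 nM–50 μM dose range, 22 h at 37 °C, colorimetric SEAP detection medium. % inhibition relative to agonist+DMSO and known-inhibitor wells.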

For assay [2], the target named is T2, human TLR8 (Homo sapiens, UniProt Q9NR97).
T2 construct: host or cells: HEK-Blue cells (HEK293-derived reporter line)
T2 sequence (Q9NR97 27-1041): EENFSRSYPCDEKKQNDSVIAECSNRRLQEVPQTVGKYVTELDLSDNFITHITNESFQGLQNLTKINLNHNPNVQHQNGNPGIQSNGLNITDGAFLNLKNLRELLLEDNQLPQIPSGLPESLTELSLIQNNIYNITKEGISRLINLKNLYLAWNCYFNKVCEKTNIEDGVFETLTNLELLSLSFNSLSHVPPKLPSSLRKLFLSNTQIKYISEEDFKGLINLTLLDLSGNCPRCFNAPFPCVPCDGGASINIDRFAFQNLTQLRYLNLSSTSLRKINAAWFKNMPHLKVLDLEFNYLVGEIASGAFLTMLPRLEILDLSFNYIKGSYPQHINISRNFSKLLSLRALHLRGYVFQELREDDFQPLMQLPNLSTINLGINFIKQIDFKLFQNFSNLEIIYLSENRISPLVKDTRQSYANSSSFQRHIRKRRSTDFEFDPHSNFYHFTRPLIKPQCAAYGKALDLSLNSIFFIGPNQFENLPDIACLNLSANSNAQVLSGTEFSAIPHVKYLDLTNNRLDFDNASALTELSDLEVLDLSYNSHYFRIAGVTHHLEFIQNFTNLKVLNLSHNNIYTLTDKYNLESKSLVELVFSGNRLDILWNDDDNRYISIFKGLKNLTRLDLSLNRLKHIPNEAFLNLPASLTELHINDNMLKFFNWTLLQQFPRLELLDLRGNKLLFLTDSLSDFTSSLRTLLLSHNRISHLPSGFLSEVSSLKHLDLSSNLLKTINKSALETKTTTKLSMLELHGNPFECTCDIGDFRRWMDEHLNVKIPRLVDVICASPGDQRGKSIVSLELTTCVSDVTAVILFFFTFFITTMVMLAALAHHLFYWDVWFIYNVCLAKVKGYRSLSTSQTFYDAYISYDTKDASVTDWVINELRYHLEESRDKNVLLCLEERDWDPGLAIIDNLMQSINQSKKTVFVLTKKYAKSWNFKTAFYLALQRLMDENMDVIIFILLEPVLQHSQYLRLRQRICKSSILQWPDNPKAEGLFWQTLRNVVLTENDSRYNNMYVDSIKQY
Nature of the assay: TLR8 inhibition reporter assay (HEK-Blue cells, SEAP reporter, R848 stimulation). To be noted: HEK-Blue cells overexpressing human TLR8, SEAP reporter, R848 15.9 μM. The gist of the method:
as §1
On the technique in general: Reporter assays use an easily measured gene product as a stand-in for the process of interest.

The target of assay [3] is T3, human TLR9 (Homo sapiens, UniProt Q9NR96).
T3 construct: host or cells: HEK-Blue cells (HEK293-derived reporter line)
T3 sequence (Q9NR96 26-1032): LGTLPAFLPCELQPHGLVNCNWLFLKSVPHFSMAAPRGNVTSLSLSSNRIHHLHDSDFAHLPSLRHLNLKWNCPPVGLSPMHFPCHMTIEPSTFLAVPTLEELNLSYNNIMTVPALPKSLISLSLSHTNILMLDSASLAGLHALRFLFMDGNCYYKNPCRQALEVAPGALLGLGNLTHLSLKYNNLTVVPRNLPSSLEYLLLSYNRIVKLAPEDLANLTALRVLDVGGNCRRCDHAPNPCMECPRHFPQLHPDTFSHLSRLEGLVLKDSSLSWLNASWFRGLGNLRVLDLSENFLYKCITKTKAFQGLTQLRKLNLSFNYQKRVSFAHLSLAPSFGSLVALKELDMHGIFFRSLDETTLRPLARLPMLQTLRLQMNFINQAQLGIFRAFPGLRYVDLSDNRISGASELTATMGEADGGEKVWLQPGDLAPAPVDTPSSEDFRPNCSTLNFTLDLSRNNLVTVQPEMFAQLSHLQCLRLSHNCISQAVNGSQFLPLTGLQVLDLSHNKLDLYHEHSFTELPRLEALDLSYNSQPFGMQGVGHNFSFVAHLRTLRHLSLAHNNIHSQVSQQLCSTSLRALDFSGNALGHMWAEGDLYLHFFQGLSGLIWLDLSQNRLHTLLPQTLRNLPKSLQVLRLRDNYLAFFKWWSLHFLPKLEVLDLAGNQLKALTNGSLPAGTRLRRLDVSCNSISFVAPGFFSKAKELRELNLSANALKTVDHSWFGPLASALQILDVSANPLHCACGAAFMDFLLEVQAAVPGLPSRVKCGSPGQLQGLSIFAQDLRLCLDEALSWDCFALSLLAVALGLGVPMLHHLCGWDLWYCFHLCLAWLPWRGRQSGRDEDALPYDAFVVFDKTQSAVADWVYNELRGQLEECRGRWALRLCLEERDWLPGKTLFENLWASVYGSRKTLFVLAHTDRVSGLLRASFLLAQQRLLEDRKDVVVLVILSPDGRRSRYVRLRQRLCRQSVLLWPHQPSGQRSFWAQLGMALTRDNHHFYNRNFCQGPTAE
Nature of the assay: TLR9 inhibition reporter assay (HEK-Blue cells, SEAP reporter, ODN2006 stimulation). To be noted: HEK-Blue cells overexpressing human TLR9, SEAP reporter, ODN2006 5 nM. The gist of the method: as §1

Where only a bound is given, the exact number is not on record here.

As to `Cc1cc(-c2[nH]c3ccc(C4CCN(C(=O)CN(C)C)CC4)cc3c2C(C)C)cc2ccnn12` [Example 570, 2-(dimethylamino)-1-(4-(3-isopropyl-2-(7-methylpyrazolo[1,5-a]pyridin-5-yl)-1H-indol-5-yl)piperidin-1-yl)ethan-1-one], the IC50 (commonly the point on the concentration scale where inhibition reaches its midpoint) in assay [1] is under 100 nM; in assay [2] it was under 100 nM; in assay [3], 1000 to 50000 nM.

Regarding `COCCN1CCC(c2ccc3[nH]c(-c4ccc(C#N)c5ncccc45)c(C(C)C)c3c2)CC1` [Example 778, 5-(3-isopropyl-5-(1-(2-methoxyethyl)piperidin-4-yl)-1H-indol-2-yl)quinoline-8-carbonitrile], the results for the IC50 in assay [1], in assay [2] and in assay [3] were under 100 nM, under 100 nM and 1000 to 50000 nM, respectively.

`Cc1cc2nnnn2cc1-c1[nH]c2ccc(C3CCN(Cc4ccn(C)n4)CC3)cc2c1C(C)C` [Example 887, 6-(3-isopropyl-5-(1-((1-methyl-1H-pyrazol-3-yl)methyl)piperidin-4-yl)-1H-indol-2-yl)-7-methyltetrazolo[1,5-a]pyridine]: the IC50 in assay [1] was under 100 nM; in assay [2], under 100 nM; in assay [3], 1000 to 50000 nM.

Regarding `CC(C)c1c(-c2ccc3cc[nH]c3c2)[nH]c2ccc(C3CCNCC3)cc12` [Example 65, 3-isopropyl-5-(piperidin-4-yl)-1H,1′H-2,6′-biindole], the IC50 in assay [1], in assay [2] and in assay [3] was 1000 to 50000 nM throughout.

For `Cc1nc2c(-c3[nH]c4ccc(C5CCNCC5)cc4c3C(C)C)cccn2n1` [Example 153, 8-(3-isopropyl-5-(piperidin-4-yl)-1H-indol-2-yl)-2-methyl-[1,2,4]triazolo[1,5-a]pyridine], the IC50 in assay [1] is under 100 nM; in assay [2], under 100 nM; in assay [3], 1000 to 50000 nM.

Regarding `CC(C)c1c(-c2ccn3c(=O)[nH]nc3c2)[nH]c2ccc(C3CCNCC3)cc12` [Example 199, 7-(3-isopropyl-5-(piperidin-4-yl)-1H-indol-2-yl)-[1,2,4]triazolo[4,3-a]pyridin-3(2H)-one], the half-inhibitory concentration (IC50) was under 100 nM in assay [1], under 100 nM in assay [2] and 100 to 1000 nM in assay [3].

`Fc1cc(-c2[nH]c3ccc(C4CCNCC4)cc3c2CC(F)F)cn2ccnc12` [Example 131, 6-(3-(2,2-difluoroethyl)-5-(piperidin-4-yl)-1H-indol-2-yl)-8-fluoroimidazo[1,2-a] pyridine]: the IC50 was under 100 nM in assay [1], 100 to 1000 nM in assay [2] and 100 to 1000 nM in assay [3].

Take `Cc1nc2cc(-c3[nH]c4ccc(C5CCN(CC(C)(C)O)CC5)cc4c3C(C)C)ccn2n1` [Example 753, 1-(4-(3-isopropyl-2-(2-methyl-[1,2,4]triazolo[1,5-a]pyridin-7-yl)-1H-indol-5-yl)piperidin-1-yl)-2-methylpropan-2-ol]: the IC50 in assay [1] was under 100 nM; in assay [2], 100 to 1000 nM; in assay [3], 100 to 1000 nM.

For the compound `CC(C)c1c(-c2ccc3cnnn3c2)[nH]c2ccc(C3CCN(CC(=O)N(C)C)CC3)cc12` [Example 299, 2-(4-(2-([1,2,3]triazolo[1,5-a]pyridin-6-yl)-3-isopropyl-1H-indol-5-yl)piperidin-1-yl)-N,N-dimethylacetamide], the 50% inhibitory concentration (IC50) in assay [1], in assay [2] and in assay [3] was 100 to 1000 nM in each case.

As to `Cc1c(-c2[nH]c3ccc(C4CCN(C(=O)CN(C)C)CC4)cc3c2C(C)C)nn2ncnc2c1C` [Example 453, 1-(4-(2-(7,8-dimethyl-[1,2,4]triazolo [1,5-b]pyridazin-6-yl)-3-isopropyl-1H-indol-5-yl)piperidin-1-yl)-2-(dimethylamino)ethan-1-one], the results for the half-inhibitory concentration (IC50) in assay [1], in assay [2] and in assay [3] were under 100 nM, under 100 nM and 1000 to 50000 nM, respectively.

Turning to `CC(C)c1c(-c2ccnc3[nH]ncc23)[nH]c2ccc(C3CCNCC3F)cc12` (stereo not drawn) [Example 172, 4-(5-(3-fluoropiperidin-4-yl)-3-isopropyl-1H-indol-2-yl)-1H-pyrazolo[3,4-b]pyridine], the half-maximal inhibitory concentration (IC50) in assay [1] was under 100 nM; in assay [2], under 100 nM; in assay [3], 1000 to 50000 nM.

Consider `CNCC(=O)N1CCC(c2ccc3[nH]c(-c4cc(C(F)(F)F)c5nccn5c4)c(C(C)C)c3c2)CC1` [Example 508, 1-(4-(3-isopropyl-2-(8-(trifluoromethyl)imidazo[1,2-a]pyridin-6-yl)-1H-indol-5-yl)piperidin-1-yl)-2-(methylamino)ethan-1-one], for which the results for the IC50 in assay [1], in assay [2] and in assay [3] were under 100 nM, 100 to 1000 nM and 100 to 1000 nM, respectively.

As to `CCc1c(-c2ccnc3[nH]ncc23)[nH]c2ccc(C3CCN(Cc4ncco4)CC3)cc12` [Example 867, 2-((4-(3-ethyl-2-(1H-pyrazolo[3,4-b]pyridin-4-yl)-1H-indol-5-yl)piperidin-1-yl)methyl)oxazole], the half-maximal inhibitory concentration (IC50) was in the range of 100 to 1000 nM in assay [1], 100 to 1000 nM in assay [2] and 1000 to 50000 nM in assay [3].

The record behind these values is patent US11739098B2 (BRISTOL-MYERS SQUIBB COMPANY, priority 2017, dated 2023).
